# Read-outs that look alike come from different tables or passages of the source.
# Columns and labels:
# [1] = target: B-Raf (V600E) (Homo sapiens (Human), UniProt P15056, V600E); experiment: KINOMEscan binding of B-Raf (V600E) to standard ligand
# Procedure: Kinase enzyme binding activities of compounds disclosed herein may be determined using a proprietary assay which measures active site-directed competition binding to an immobilized ligand (Fabian, M. A. et al., Nature Biotechnol., 2005, 23:329-336). These assays may be conducted by DiscoverX (formerly Ambit; San Diego, Calif.). The percentage inhibition produced by incubation with a test compound may be calculated relative to the non-inhibited control.
# [2] = target: CYP2C9 (Homo sapiens (Human), UniProt P11712); experiment: CYP2C9 inhibition with and without preincubation; type: in vitro ADME; details: for inhibition at 15 µM: human, read-out: 15 μM % Inh
# Procedure: (§1) Assessment of certain in vitro ADME (absorption, distribution, metabolism, and excretion) parameters for Compound I was conducted by BioFocus (Saffron Walden, UK). The results reveal that Compound I is cleared rapidly by human hepatocytes and that it has a reduced liability for time-dependent cytochrome P450 inhibition.
# [3] = Plasma pharmacokinetics and total colon distribution after oral administration to mice; type: in vivo; details: male, C57BL/6, mouse, total colon, oral 5 mg/kg, vehicle B, read-out: Median total colon concentration
# Procedure: (§2) Studies were conducted by Sai Life Sciences (Hinjewadi, Pune, India) to investigate the plasma pharmacokinetics and total colon tissue distribution of Compound I. In particular, pharmacokinetic studies were carried out in: • male C57BL/6 mice, following a single oral administration; and • male Wistar rats following a single intravenous or oral administration.
# [4] = Pharmacokinetics after intravenous administration to rats; type: in vivo; details: intravenous 0.25 mg/kg
# Procedure: as §2
# [5] = test system: rat, Cynomolgus macaque or human hepatocytes; experiment: Analysis of metabolites in hepatocyte incubations; type: in vitro ADME; details: 10 μM, 0, 60 and 90 minutes
# Procedure: Studies were conducted by BioFocus (Saffron Walden, UK) to determine the metabolic fate of Compound I following incubation with rat, Cynomolgus macaque or human hepatocytes.
# Separate incubations (n=3) of Compound I (10 μM initial concentration) or DMSO control, were performed with cryopreserved hepatocytes from each species (0.5 million cell/mL) at 37° C. for 0, 60 and 90 minutes before termination of reactions and compound extraction with acetonitrile. Sample replicates were pooled prior to analysis.
# Potential metabolites were identified using time-of-flight (TOF) and triple quadruple (TQ) mass spectrometers.
# [6] = test system: human hepatocytes; experiment: Human hepatocyte stability test; type: in vitro ADME
# Procedure: as §1
# [7] = Human hepatocyte stability test; type: in vitro ADME; details: human hepatocytes
# Procedure: as §1
# [8] = target: p38 MAPKα (Homo sapiens (Human), UniProt Q16539); experiment: p38 MAPKα enzyme inhibition (Method 2), Z-LYTE FRET; type: biochemical
# Procedure: The enzyme inhibitory activities of compounds disclosed herein are determined by FRET using synthetic peptides labelled with both donor and acceptor fluorophores (Z-LYTE, Invitrogen Ltd., Paisley, UK).
# The inhibitory activities of test compounds against the p38 MAPKα isoform (MAPK14: Invitrogen) are evaluated indirectly by determining the level of activation/phosphorylation of the down-stream molecule, MAPKAP-K2. The p38 MAPKα protein (80 ng/mL, 2.5 μL) is mixed with the test compound (2.5 μL of either 4 μg/mL, 0.4 μg/mL, […] or 0.004 μg/mL) for 2 hr at RT. […] The mixture is incubated for 1 hr at RT. Development reagent (protease, 5 μL) is added for 1 hr prior to detection in a fluorescence microplate reader (Varioskan® Flash, ThermoFisher Scientific). […]
# In all cases, the site-specific protease cleaves non-phosphorylated peptide only and eliminates the FRET signal. Phosphorylation levels of each reaction are calculated using the ratio of coumarin emission (donor) over fluorescein emission (acceptor), for which high ratios indicate high phosphorylation and low ratios indicate low phosphorylation levels.
# [9] = test system: d-U937 cells; experiment: Accumulation of β catenin in d-U937 cells; type: cell-based, human; details: normalised to Reference compound at 1 μg/mL
# Procedure: U937 cells, a human monocytic cell line, are differentiated into macrophage-type cells by incubation with PMA (100 ng/mL) for between 48 to 72 hr. The cells are then incubated with either final concentrations of test compound or vehicle for 18 hr. The induction of β-catenin by the test compound is stopped by replacing the media with 4% formaldehyde solution. Endogenous […] is neutralised by incubating with quenching buffer (100 μL, 0.1% sodium azide, 1% H2O2 in PBS with 0.05% Tween-20) for 20 min. The cells are washed with washing buffer (200 μL; PBS containing 0.05% Tween-20) and incubated with blocking solution (200 μL; 5% milk in PBS) for 1 hr, re-washed with washing buffer (200 μL) and then incubated overnight with anti-β-catenin antibody solution (50 μL) in 1% BSA/PBS (BD, Oxford, UK).
# After washing with washing buffer (3×200 μL; PBS containing 0.05% Tween-20), cells are incubated with a HRP-conjugated secondary antibody solution (100 μL) in 1% BSA/PBS (Dako, Cambridge, UK) and the resultant signal is determined colourimetrically (OD: 450 nm with a reference wavelength of 655 nm) using TMB substrate (50 μL; R&D Systems, Abingdon, UK). This reaction is stopped by addition of 1N H2SO4 solution (50 μL). Cells are then washed with washing buffer and 2% crystal violet solution (50 μL) is applied for 30 min. After washing with washing buffer (3×200 μL), 1% SDS (100 μL) is added to each well and the plates are shaken lightly for 1 hr prior to measuring the absorbance at 595 nm (Varioskan® Flash, Thermo-Fisher Scientific).
# The measured OD450-655 readings are corrected for cell number by dividing the OD450-655 by the OD595 readings.
# Chain of CYP2C9 (P11712 whole entry): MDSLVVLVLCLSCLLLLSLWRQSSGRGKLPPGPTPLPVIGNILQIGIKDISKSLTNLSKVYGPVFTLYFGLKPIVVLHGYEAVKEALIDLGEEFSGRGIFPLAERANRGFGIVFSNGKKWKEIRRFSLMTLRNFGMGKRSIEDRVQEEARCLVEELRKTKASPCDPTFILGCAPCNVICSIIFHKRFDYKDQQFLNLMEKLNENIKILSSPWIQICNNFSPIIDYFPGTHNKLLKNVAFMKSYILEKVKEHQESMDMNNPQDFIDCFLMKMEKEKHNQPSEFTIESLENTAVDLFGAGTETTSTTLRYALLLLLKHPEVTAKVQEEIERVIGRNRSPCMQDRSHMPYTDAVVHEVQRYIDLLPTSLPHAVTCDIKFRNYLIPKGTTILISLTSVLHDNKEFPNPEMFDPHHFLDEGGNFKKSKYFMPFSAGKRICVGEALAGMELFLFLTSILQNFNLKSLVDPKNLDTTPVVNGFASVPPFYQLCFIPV
# Chain of B-Raf (V600E) (P15056 whole entry V600E): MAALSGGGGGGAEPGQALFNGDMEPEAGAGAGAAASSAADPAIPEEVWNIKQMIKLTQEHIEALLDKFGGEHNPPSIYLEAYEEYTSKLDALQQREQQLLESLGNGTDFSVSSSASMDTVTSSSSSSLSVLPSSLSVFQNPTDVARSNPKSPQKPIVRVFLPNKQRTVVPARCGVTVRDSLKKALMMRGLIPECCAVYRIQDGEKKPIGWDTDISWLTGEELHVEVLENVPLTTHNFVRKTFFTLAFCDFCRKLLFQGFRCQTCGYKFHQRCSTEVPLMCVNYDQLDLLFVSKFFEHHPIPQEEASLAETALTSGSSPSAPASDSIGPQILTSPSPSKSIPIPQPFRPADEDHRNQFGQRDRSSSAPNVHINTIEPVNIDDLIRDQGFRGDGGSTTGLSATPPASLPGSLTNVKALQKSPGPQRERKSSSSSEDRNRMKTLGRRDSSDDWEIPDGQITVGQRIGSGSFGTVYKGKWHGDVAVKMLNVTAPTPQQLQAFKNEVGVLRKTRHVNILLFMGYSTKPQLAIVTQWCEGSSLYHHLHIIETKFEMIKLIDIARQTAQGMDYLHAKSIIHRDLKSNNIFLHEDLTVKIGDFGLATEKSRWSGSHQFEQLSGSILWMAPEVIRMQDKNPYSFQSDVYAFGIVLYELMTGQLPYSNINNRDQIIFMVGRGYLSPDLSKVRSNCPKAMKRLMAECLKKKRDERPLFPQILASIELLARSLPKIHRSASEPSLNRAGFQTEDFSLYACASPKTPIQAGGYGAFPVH
# Chain of p38 MAPKα (Q16539 whole entry, looked up): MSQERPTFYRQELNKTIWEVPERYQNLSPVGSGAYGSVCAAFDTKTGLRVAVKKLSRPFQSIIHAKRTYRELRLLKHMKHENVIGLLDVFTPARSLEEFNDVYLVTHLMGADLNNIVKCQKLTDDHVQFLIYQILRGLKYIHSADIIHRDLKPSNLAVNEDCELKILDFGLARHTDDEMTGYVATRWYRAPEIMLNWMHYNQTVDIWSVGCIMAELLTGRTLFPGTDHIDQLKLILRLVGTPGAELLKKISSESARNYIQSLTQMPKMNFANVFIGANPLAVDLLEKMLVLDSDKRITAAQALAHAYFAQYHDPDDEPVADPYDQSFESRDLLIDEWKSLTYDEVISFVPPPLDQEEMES
structure (smiles),measurement,setting,value
"C#Cc1cc(Nc2nccc(Oc3ccc(NC(=O)Nc4cc(C(C)(C)C)cc(NS(C)(=O)=O)c4OC)c4ccccc34)n2)cc(C(=O)NCCOCCOCCOC)c1 [Compound I, 3-((4-((4-(3-(5-(tert-Butyl)-2-methoxy-3-(methylsulfonamido)phenyl)ureido)naphthalen-1-yl)oxy)pyrimidin-2-yl)amino)-5-ethynyl-N-(2-(2-(2-methoxyethoxy)ethoxy)ethyl)benzamide]",effect on binding of B-Raf (V600E) to its standard ligand,[1],did not have any significant effect
same,IC50,"[2]; CYP2C9, 0 min preincubation",> 15 µM
same,IC50,"[2]; CYP2C9, 30 min preincubation",> 15 µM
same,inhibition at 15 µM,"[2]; CYP2C9, 0 min preincubation",21%
same,inhibition at 15 µM,"[2]; CYP2C9, 30 min preincubation",37%
same,concentration at 1 h,[3]; 1 h,0 ng/g
same,concentration at 2 h,[3]; 2 h,10.4 ng/g
same,concentration at 4 h,[3]; 4 h,420 ng/g
same,concentration at 6 h,[3]; 6 h,3080 ng/g
same,concentration at 8 h,[3]; 8 h,1950 ng/g
same,concentration at 12 h,[3]; 12 h,126 ng/g
same,concentration at 24 h,[3]; 24 h,23 ng/g
same,CI,[4],4.8 mL/min/kg
same,AUC(0-inf),"[4]; male, Wistar, rat, plasma",871 ng·h/mL
same,AUC(0-t),"[4]; male, Wistar, rat, plasma",869 ng·h/mL
same,C0,"[4]; male, Wistar, rat, plasma",6540 ng/mL
same,half-life,"[4]; male, Wistar, rat, plasma",6 min
same,Vd,"[4]; male, Wistar, rat, plasma, read-out: Vss",0.03 L/kg
same,number of metabolites formed in hepatocytes,[5],9
same,products connected to metabolism at the naphthalene moiety,[5],no products were noted
same,Mean hepatic extraction ratio,[6],0.85
same,half-life,[7],34 min
same,hepatocyte CLint,[7]; read-out: Mean intrinsic clearance,41 µL/min/1e6 cells
same,IC50,[8],0.224 µM
same,% β-catenin induction,[9]; 1 μg/mL,21%
same,% β-catenin induction,[9]; 5 μg/mL,14%
same,% β-catenin induction,[9]; 10 μg/mL,26%

# — patent US8927563B2, “Kinase inhibitor” (Respivert Limited, priority 2013, dated 2015)
